In US10849336B2, “Cocoa-based food products” (IP Science Limited, priority 2011, dated 2020):
Several values for one entry are separate records, joined by “and”; a condition that tells them apart may be missing. Equal entries are not always repeated.

Experiments:
[1] = test system: CHD patients; test: Clinical trial in CHD patients, daily lycopene, control chocolate or L-chocolate; format: in vivo, human
Experimental: Commercially available dark chocolate (Green & Black's Dark Chocolate; 85% cocoa) was melted at 70° C. The melted chocolate was mixed with tomato oleoresin, containing 15% of lycopene (Lyc-O-Mato), in the ratio of 1.57 mg of oleoresin to 1 g of the chocolate. The mixture was blended for 10 minutes and then divided into daily […] 30 g portions and cooled down to the room temperature.
Each […] 30 g chocolate portion contained 47.1 mg of tomato oleoresin or about 7 mg of lycopene.
The melting and mixing procedures were performed as described above using the same commercially available dark chocolate, but instead of tomato oleoresin, sunflower oil (Floral™) was used.
47.1 mg of tomato oleoresin was pre-dissolved in ethanol and mixed with Whey Protein as described in Richelle et al (2002) J Nutr 132 404-408, WO01/091588 and US2002/01072992. Then the mixture was placed into gelatine capsules.
18 male CHD patients, age 47-69, were recruited for this study.
Main inclusion criteria were: • elevated total serum cholesterol above 200 mg/dL and/or triglycerides above 150 mg/dL, • all patients were naive for any lipid-lowering medications, • stable clinical conditions and regimen of medications was t the last 3 months.
Secondary inclusion criteria were: • positive blood markers on inflammatory oxidative damage, IOD, >20-30 μM MDA • positive blood on an antibody inflammatory marker, Px-IgG>0.250-0.300 U/ml
All patients were randomised and divided into three equal groups of 6 patients each. Two groups receiving chocolate were blinded; the group receiving lycopene preparation along was open labelled. The period of the trial was 4 weeks.

[2] = test system: cholesterol; conditions: cited from earlier work
[3] = Baseline, group mean (unlabelled last line)
[4] = Week 1, group mean (unlabelled last line)
[5] = Week 2, group mean (unlabelled last line)
[6] = Week 3, group mean (unlabelled last line)

CC(C)=CCC/C(C)=C/C=C/C(C)=C/C=C/C(C)=C/C=C/C=C(C)/C=C/C=C(C)/C=C/C=C(\C)CCC=C(C)C [Lycopene]
ALT [1, 3]: 29.2 U/L | AST [1, 3]: 37.3 U/L | GL [1, 3]: 5.4 mmol/L | HDL [1, 3]: 40.5 mg/dL | IOD [1, 3]: 95 μM MDA | LDL [1, 3]: 157 mg/dL | Px-IgG [1, 3]: 0.762 U/ml | TC [1, 3]: 222 mg/dL | TG [1, 3]: 149 mg/dL | ALT ([1]; Baseline, individual patient): 35 U/L and 29 U/L and 26 U/L and 25 U/L and 36 U/L and 24 U/L | AST ([1]; Baseline, individual patient): 27 U/L and 49 U/L and 25 U/L and 44 U/L and 45 U/L and 34 U/L | GL ([1]; Baseline, individual patient): 4.4 mmol/L and 5.9 mmol/L and 6.1 mmol/L and 6.5 mmol/L and 5.6 mmol/L and 3.8 mmol/L | HDL ([1]; Baseline, individual patient): 44 mg/dL and 37 mg/dL and 40 mg/dL and 39 mg/dL and 42 mg/dL and 41 mg/dL | IOD ([1]; Baseline, individual patient): 95 μM MDA and 83 μM MDA and 49 μM MDA and 101 μM MDA and 162 μM MDA and 79 μM MDA | LDL ([1]; Baseline, individual patient): 161 mg/dL and 186 mg/dL and 147 mg/dL and 153 mg/dL and 159 mg/dL and 135 mg/dL | Px-IgG ([1]; Baseline, individual patient): 0.803 U/ml and 0.751 U/ml and 0.743 U/ml and 0.698 U/ml and 0.811 U/ml | TC ([1]; Baseline, individual patient): 219 mg/dL and 243 mg/dL and 210 mg/dL and 225 mg/dL and 231 mg/dL and 204 mg/dL | TG ([1]; Baseline, individual patient): 126 mg/dL and 165 mg/dL and 157 mg/dL and 161 mg/dL and 150 mg/dL and 134 mg/dL | ALT [1, 4]: 31.5 U/L | AST [1, 4]: 39.7 U/L | GL [1, 4]: 5.3 mmol/L | HDL [1, 4]: 40.3 mg/dL | IOD [1, 4]: 96 μM MDA | LDL [1, 4]: 157 mg/dL | Px-IgG [1, 4]: 0.823 U/ml | TC [1, 4]: 221 mg/dL | TG [1, 4]: 150 mg/dL | ALT ([1]; Week 1, individual patient): 31 U/L and 33 U/L (2×) and 29 U/L (2×) and 34 U/L | AST ([1]; Week 1, individual patient): 47 U/L and 46 U/L and 36 U/L and 31 U/L and 44 U/L and 34 U/L | GL ([1]; Week 1, individual patient): 6.4 mmol/L and 5.7 mmol/L and 4.9 mmol/L and 3.6 mmol/L and 5.1 mmol/L and 6.1 mmol/L | HDL ([1]; Week 1, individual patient): 39 mg/dL and 42 mg/dL and 40 mg/dL (2×) and 43 mg/dL and 38 mg/dL | IOD ([1]; Week 1, individual patient): 99 μM MDA and 158 μM MDA and 85 μM MDA and 94 μM MDA and 81 μM MDA and 57 μM MDA | LDL ([1]; Week 1, individual patient): 153 mg/dL and 160 mg/dL (2×) and 134 mg/dL and 185 mg/dL and 149 mg/dL | Px-IgG ([1]; Week 1, individual patient): 0.823 U/ml and 0.746 U/ml and 0.809 U/ml and 0.867 U/ml and 0.851 U/ml and 0.839 U/ml | TC ([1]; Week 1, individual patient): 224 mg/dL and 231 mg/dL and 205 mg/dL and 217 mg/dL and 241 mg/dL and 209 mg/dL | TG ([1]; Week 1, individual patient): 160 mg/dL and 152 mg/dL and 137 mg/dL and 130 mg/dL and 164 mg/dL and 159 mg/dL | ALT [1, 5]: 30.8 U/L | AST [1, 5]: 37.5 U/L | GL [1, 5]: 5.2 mmol/L | HDL [1, 5]: 40.3 mg/dL | IOD [1, 5]: 92 μM MDA | LDL [1, 5]: 156 mg/dL | Px-IgG [1, 5]: 0.818 U/ml | TC [1, 5]: 221 mg/dL | TG [1, 5]: 150 mg/dL | ALT ([1]; Week 2, individual patient): 29 U/L and 31 U/L (2×) and 28 U/L and 32 U/L and 34 U/L | AST ([1]; Week 2, individual patient): 43 U/L and 42 U/L and 31 U/L and 38 U/L and 41 U/L and 30 U/L | GL ([1]; Week 2, individual patient): 6.6 mmol/L and 5.2 mmol/L and 5.4 mmol/L and 4.1 mmol/L and 3.9 mmol/L and 6 mmol/L | HDL ([1]; Week 2, individual patient): 39 mg/dL (2×) and 41 mg/dL (2×) and 40 mg/dL and 42 mg/dL | IOD ([1]; Week 2, individual patient): 95 μM MDA and 139 μM MDA and 84 μM MDA and 91 μM MDA and 75 μM MDA and 68 μM MDA | LDL ([1]; Week 2, individual patient): 152 mg/dL and 158 mg/dL and 133 mg/dL and 159 mg/dL and 183 mg/dL and 150 mg/dL | Px-IgG ([1]; Week 2, individual patient): 0.812 U/ml and 0.809 U/ml and 0.815 U/ml and 0.844 U/ml and 0.830 U/ml and 0.799 U/ml | TC ([1]; Week 2, individual patient): 223 mg/dL and 230 mg/dL and 208 mg/dL (2×) and 216 mg/dL and 239 mg/dL | TG ([1]; Week 2, individual patient): 159 mg/dL and 151 mg/dL and 138 mg/dL and 132 mg/dL and 162 mg/dL and 158 mg/dL | ALT [1, 6]: 29.3 U/L | AST [1, 6]: 37.8 U/L | GL [1, 6]: 5.22 mmol/L | HDL [1, 6]: 40.2 mg/dL | IOD [1, 6]: 94 μM MDA | LDL [1, 6]: 154 mg/dL | Px-IgG [1, 6]: 0.806 U/ml | TC [1, 6]: 219 mg/dL | TG [1, 6]: 149 mg/dL | ALT ([1]; Week 3, individual patient): 32 U/L and 29 U/L and 25 U/L and 31 U/L (2×) and 28 U/L | AST ([1]; Week 3, individual patient): 42 U/L (2×) and 39 U/L and 35 U/L and 36 U/L and 33 U/L | GL ([1]; Week 3, individual patient): 6.2 mmol/L and 4.8 mmol/L and 5.1 mmol/L and 5 mmol/L and 4.4 mmol/L and 5.8 mmol/L | HDL ([1]; Week 3, individual patient): 39 mg/dL and 42 mg/dL and 40 mg/dL and 41 mg/dL (2×) and 38 mg/dL | IOD ([1]; Week 3, individual patient): 94 μM MDA and 136 μM MDA and 85 μM MDA and 93 μM MDA and 76 μM MDA and 81 μM MDA | LDL ([1]; Week 3, individual patient): 151 mg/dL and 157 mg/dL and 132 mg/dL and 155 mg/dL and 179 mg/dL and 152 mg/dL | Px-IgG ([1]; Week 3, individual patient): 0.834 U/ml and 0.781 U/ml and 0.84 U/ml and 0.795 U/ml and 0.809 U/ml and 0.774 U/ml | TC ([1]; Week 3, individual patient): 221 mg/dL and 227 mg/dL and 210 mg/dL and 214 mg/dL and 232 mg/dL and 211 mg/dL | TG ([1]; Week 3, individual patient): 155 mg/dL and 149 mg/dL and 135 mg/dL and 142 mg/dL and 161 mg/dL and 154 mg/dL | changes in levels of elevated cholesterol, triglycerides and markers of oxidative damage or inflammation ([1]; after two weeks of administration, 7 mg lycopene or 30 g control bar): no changes | cholesterol-lowering effect ([2]; 13 clinical studies, daily doses 25 mg of lycopene or above): 7.55 ± 6.15 mg/dL | effect on cholesterol or other blood lipids ([2]; daily consumption of 6-10 mg): no effect on cholesterol or other blood lipids
